Experimental data taken from ChEMBL document CHEMBL1240532, “Spiroindolones, a potent compound class for the treatment of malaria” (Science, 2010).
Active and inactive are the calls of the source. The rule behind the calls is not given here.

What was measured:
[1] = Intrinsic clearance in human liver microsome; format: ADME; conditions: liver microsomes
[2] = in vivo; conditions: CD1, mouse, iv, 5.4 mg/kg
Description: Elimination half life in CD1 mouse at 5.4 mg/kg, iv

[3] = tested on: Plasmodium falciparum; assay: Antimalarial activity against NITD609-resistant Plasmodium falciparum Dd2 Clone1 bearing P-type ATPase4 I398F and P990R mutations after 72 hrs by SYBR green based fluorescence assay; format: functional, organism-based; conditions: Dd2, 72 h
[4] = Tmax in CD1 mouse at 24.6 mg/kg, po; format: ADME, organism-based; design: dose 24.6 mg/kg, route oral; conditions: in vivo
[5] = target: Muscarinic acetylcholine receptor M2 (Homo sapiens, UniProt P08172); assay: Binding affinity to human recombinant muscarinic M2 receptor
[6] = target: Corticotropin-releasing factor receptor 1 (Homo sapiens, UniProt P34998); assay: Binding affinity to human recombinant CRF1 receptor
[7] = Tmax in Wistar rat at 23.7 mg/kg, po; format: ADME, organism-based; design: dose 23.7 mg/kg, route oral; conditions: in vivo
[8] = target: Neuropeptide Y receptor type 1 (Homo sapiens, UniProt P25929); assay: Binding affinity to human recombinant neuropeptide Y1 receptor
[9] = target: hERG (KCNH2) (Homo sapiens, UniProt Q12809); assay: Inhibition of human ERG at 30 uM
[10] = target: Prostaglandin G/H synthase 1 (Homo sapiens, UniProt P23219); assay: Binding affinity to human recombinant COX1
[11] = target: Androgen receptor (Homo sapiens, UniProt P10275); assay: Binding affinity to human recombinant androgen receptor
[12] = target: Mu-type opioid receptor (Homo sapiens, UniProt P35372); assay: Binding affinity to human recombinant opiate mu receptor
[13] = target: Gastrin/cholecystokinin type B receptor (Homo sapiens, UniProt P32239); assay: Binding affinity to human recombinant cholecystokinin B receptor
[14] = target: Amine oxidase [flavin-containing] A (Homo sapiens, UniProt P21397); assay: Binding affinity to human recombinant MAOM
[15] = target: Estrogen receptor beta (Homo sapiens, UniProt Q92731); assay: Binding affinity to human recombinant ERbeta
[16] = Binding affinity to rat benzodiazepine receptor
[17] = Intrinsic clearance in mouse liver microsome; format: ADME; conditions: liver microsomes
[18] = target: B1 bradykinin receptor (Homo sapiens, UniProt P46663); assay: Binding affinity to human recombinant bradykinin B1 receptor
[19] = tested on: Plasmodium falciparum; assay: Antimalarial activity against NITD609-resistant Plasmodium falciparum Dd2 Clone2 bearing P-type ATPase4 T418N and P990R mutations after 72 hrs by SYBR green based fluorescence assay; format: functional, organism-based; conditions: Dd2, 72 h
[20] = target: Thromboxane A2 receptor (Homo sapiens, UniProt P21731); assay: Binding affinity to human recombinant thromboxane A2 receptor
[21] = tested on: Plasmodium falciparum; assay: Antimalarial activity against Plasmodium falciparum D6 after 48 hrs incubation by [3H]hypoxanthin incorporation assay
[22] = target: Beta-2 adrenergic receptor (Homo sapiens, UniProt P07550); assay: Binding affinity to human recombinant adrenergic beta2 receptor
[23] = target: 5-hydroxytryptamine receptor 1A (Homo sapiens, UniProt P08908); assay: Binding affinity to human recombinant serotonin 5-HT1A receptor
[24] = tested on: Plasmodium falciparum; format: functional, organism-based; conditions: Dd2, 72 h, read-out: IC50
[25] = tested on: Plasmodium falciparum; assay: Antimalarial activity against Plasmodium falciparum 3D7 after 48 hrs incubation by [3H]hypoxanthin incorporation assay
[26] = tested on: Plasmodium berghei; assay: Antimalarial activity against Plasmodium berghei GFP ANKA infected in NMRI mice (Mus musculus) assessed as survival at 10 mg/kg, perorally administered as single dose as single dose 24 hrs post infection for 1 day measured 72 hrs post infection; format: functional; conditions: route oral
[27] = in vivo; conditions: Wistar, rat, iv, 5 mg/kg
Description: Elimination half life in Wistar rat at 5 mg/kg, iv

[28] = tested on: Plasmodium falciparum; assay: Inhibition of protein synthesis in NITD609-resistant Plasmodium falciparum Dd2 Clone1 within 1 hrs by [35S]Met/Cys incorporation assay; format: functional
[29] = tested on: Plasmodium berghei; assay: Antimalarial activity against Plasmodium berghei GFP ANKA infected in NMRI mice (Mus musculus) assessed as reduction in parasitaemia dosed in ETPGS formulation 1 day post infection measured 72 hrs post infection; format: functional
[30] = Binding affinity to human recombinant adenosine transporter
[31] = target: Adenosine receptor A3 (Homo sapiens, UniProt P0DMS8); assay: Binding affinity to human recombinant adenosine 3 receptor
[32] = tested on: Plasmodium falciparum; assay: Antimalarial activity against Plasmodium falciparum isolates after 42 hrs; format: functional, organism-based
[33] = tested on: Plasmodium falciparum; assay: microbe, parasite or virus in culture; conditions: TM90C2A
[34] = Binding affinity to rat N-type calcium channel
[35] = target: Vasopressin V1a receptor (Homo sapiens, UniProt P37288); assay: Binding affinity to human recombinant vasopressin V1a receptor
[36] = target: B2 bradykinin receptor (Homo sapiens, UniProt P30411); assay: Binding affinity to human recombinant bradykinin B2 receptor
[37] = target: Type-1 angiotensin II receptor (Homo sapiens, UniProt P30556); assay: Binding affinity to human recombinant angiotensin2 AT1 receptor
[38] = target: Hydroxycarboxylic acid receptor 2 (Homo sapiens, UniProt Q8TDS4); assay: Binding affinity to human recombinant niacin receptor
[39] = target: Neurotensin receptor type 1 (Homo sapiens, UniProt P30989); assay: Binding affinity to human recombinant neurotensin NT1 receptor
[40] = in vivo; conditions: CD1, mouse, po, 24.6 mg/kg
Description: Elimination half life in CD1 mouse at 24.6 mg/kg, po

[41] = tested on: Plasmodium falciparum; assay: microbe, parasite or virus in culture; conditions: Dd2, 72 h
[42] = target: Glucagon receptor (Homo sapiens, UniProt P47871); assay: Binding affinity to human recombinant glucagon receptor

Thromboxane A2 receptor, sequence (P21731 whole entry): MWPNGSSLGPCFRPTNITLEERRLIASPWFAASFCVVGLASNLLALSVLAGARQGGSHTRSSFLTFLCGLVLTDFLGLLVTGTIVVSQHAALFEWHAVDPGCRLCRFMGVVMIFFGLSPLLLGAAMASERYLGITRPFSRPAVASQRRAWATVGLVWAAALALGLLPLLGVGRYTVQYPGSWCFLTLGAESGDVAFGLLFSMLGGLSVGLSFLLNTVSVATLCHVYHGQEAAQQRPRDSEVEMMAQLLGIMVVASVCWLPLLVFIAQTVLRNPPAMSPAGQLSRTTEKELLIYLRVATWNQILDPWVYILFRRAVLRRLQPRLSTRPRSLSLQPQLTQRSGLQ
Amine oxidase [flavin-containing] A, sequence (P21397 whole entry): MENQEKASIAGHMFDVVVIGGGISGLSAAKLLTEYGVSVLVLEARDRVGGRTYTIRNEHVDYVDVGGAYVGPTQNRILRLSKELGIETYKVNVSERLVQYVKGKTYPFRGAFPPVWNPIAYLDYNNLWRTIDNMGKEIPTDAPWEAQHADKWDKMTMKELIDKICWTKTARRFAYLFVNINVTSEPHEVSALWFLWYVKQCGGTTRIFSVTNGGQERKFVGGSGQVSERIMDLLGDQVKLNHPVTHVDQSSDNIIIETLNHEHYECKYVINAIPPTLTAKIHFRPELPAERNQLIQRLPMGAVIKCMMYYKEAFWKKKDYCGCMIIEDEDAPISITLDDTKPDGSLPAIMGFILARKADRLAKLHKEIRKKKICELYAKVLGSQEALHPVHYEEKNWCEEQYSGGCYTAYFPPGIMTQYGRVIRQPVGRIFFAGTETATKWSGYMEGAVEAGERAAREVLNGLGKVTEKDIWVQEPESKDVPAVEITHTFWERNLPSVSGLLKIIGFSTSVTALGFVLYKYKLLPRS
Mu-type opioid receptor, sequence (P35372 whole entry): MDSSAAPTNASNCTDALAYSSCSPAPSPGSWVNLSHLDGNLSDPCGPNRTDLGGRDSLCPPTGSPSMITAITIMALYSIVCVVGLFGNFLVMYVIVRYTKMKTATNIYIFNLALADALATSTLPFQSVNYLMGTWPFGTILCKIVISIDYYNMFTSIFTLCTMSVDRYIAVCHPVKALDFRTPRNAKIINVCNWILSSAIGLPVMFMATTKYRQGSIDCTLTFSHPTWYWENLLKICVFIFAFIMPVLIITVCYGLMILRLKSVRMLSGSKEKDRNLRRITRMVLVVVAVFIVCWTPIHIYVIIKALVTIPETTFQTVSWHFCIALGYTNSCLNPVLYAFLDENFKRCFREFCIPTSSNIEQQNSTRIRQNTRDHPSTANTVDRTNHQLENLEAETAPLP
Beta-2 adrenergic receptor, sequence (P07550 whole entry): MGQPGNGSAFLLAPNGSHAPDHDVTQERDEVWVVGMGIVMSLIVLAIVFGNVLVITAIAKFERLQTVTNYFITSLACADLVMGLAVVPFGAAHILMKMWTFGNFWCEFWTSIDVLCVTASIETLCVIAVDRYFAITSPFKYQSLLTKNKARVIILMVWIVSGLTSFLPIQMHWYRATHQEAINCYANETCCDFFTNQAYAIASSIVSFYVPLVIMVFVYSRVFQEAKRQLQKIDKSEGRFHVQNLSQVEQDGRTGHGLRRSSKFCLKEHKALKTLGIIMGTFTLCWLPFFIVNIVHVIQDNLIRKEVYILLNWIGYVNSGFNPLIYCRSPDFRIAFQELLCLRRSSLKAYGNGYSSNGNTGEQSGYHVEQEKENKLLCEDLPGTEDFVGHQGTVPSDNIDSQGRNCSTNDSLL
Type-1 angiotensin II receptor, sequence (P30556 whole entry): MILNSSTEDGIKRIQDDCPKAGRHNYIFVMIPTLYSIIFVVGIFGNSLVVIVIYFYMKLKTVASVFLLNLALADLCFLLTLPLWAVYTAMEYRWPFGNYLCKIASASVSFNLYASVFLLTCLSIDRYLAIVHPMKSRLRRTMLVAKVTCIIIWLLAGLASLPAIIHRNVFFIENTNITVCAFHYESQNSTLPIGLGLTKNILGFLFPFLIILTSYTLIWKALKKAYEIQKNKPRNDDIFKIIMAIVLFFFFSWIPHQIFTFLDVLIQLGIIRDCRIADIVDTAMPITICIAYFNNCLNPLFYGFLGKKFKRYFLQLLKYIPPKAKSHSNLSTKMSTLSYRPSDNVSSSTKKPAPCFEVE
5-hydroxytryptamine receptor 1A, sequence (P08908 whole entry): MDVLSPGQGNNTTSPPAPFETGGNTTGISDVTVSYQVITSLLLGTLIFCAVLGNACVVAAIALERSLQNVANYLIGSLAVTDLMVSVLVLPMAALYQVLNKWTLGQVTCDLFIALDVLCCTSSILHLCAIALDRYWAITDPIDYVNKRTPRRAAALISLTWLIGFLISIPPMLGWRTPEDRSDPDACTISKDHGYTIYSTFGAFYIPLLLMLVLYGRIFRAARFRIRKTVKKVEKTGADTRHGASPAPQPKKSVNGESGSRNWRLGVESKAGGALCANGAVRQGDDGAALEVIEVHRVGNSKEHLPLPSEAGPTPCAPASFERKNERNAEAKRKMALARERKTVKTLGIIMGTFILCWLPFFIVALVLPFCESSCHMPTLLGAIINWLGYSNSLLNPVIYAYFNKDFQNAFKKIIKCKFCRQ
hERG (KCNH2), sequence (Q12809 whole entry): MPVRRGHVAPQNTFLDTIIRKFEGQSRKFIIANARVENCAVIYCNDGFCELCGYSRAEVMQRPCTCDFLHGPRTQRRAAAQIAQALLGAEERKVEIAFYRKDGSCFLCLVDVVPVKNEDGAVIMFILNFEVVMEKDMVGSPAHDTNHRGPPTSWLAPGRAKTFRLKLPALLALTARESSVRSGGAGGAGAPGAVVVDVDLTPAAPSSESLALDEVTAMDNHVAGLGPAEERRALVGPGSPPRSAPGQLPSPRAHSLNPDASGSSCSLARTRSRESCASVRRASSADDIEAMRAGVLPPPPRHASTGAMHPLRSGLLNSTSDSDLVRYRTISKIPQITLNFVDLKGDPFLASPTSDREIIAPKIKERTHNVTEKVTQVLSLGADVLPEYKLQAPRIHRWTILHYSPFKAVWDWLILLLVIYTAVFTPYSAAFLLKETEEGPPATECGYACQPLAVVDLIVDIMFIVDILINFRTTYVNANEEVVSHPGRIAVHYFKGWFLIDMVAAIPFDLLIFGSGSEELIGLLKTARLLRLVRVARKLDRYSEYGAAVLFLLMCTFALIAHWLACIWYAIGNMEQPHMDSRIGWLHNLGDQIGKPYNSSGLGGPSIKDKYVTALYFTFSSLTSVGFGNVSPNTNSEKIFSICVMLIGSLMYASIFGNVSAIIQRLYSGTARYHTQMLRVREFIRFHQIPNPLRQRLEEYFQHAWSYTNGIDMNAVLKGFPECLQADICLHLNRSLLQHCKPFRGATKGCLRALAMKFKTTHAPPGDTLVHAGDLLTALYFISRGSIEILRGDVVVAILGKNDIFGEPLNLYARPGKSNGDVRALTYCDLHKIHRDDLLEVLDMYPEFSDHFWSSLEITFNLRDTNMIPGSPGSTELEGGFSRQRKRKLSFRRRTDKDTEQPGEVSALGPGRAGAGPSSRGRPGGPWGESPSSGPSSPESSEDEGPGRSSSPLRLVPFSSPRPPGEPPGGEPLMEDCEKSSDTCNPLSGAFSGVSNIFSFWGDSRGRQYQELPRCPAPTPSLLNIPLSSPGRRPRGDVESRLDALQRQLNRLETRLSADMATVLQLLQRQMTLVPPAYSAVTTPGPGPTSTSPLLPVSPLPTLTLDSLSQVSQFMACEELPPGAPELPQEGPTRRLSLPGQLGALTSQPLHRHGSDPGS
Neurotensin receptor type 1, sequence (P30989 whole entry): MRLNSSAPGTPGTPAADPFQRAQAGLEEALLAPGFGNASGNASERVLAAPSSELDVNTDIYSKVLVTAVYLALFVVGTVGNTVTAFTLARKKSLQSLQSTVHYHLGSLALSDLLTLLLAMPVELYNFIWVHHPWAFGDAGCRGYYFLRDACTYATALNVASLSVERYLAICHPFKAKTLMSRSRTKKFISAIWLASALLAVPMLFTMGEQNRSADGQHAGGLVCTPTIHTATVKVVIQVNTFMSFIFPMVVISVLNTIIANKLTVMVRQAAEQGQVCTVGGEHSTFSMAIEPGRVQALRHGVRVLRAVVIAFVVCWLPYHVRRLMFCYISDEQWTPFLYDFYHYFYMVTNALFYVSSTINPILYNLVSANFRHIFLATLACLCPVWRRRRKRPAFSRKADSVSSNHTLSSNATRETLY
Neuropeptide Y receptor type 1, sequence (P25929 whole entry): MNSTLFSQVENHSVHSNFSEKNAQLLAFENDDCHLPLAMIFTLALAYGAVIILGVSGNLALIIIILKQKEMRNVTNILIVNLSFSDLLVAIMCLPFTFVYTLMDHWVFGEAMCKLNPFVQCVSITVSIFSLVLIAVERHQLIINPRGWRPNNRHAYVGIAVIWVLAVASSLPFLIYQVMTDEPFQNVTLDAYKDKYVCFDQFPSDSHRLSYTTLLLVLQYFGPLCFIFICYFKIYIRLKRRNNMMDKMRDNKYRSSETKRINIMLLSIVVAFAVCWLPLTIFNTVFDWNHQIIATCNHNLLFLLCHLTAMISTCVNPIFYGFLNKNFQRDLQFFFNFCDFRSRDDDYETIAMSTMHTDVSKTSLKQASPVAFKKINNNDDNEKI
Muscarinic acetylcholine receptor M2, sequence (P08172 whole entry): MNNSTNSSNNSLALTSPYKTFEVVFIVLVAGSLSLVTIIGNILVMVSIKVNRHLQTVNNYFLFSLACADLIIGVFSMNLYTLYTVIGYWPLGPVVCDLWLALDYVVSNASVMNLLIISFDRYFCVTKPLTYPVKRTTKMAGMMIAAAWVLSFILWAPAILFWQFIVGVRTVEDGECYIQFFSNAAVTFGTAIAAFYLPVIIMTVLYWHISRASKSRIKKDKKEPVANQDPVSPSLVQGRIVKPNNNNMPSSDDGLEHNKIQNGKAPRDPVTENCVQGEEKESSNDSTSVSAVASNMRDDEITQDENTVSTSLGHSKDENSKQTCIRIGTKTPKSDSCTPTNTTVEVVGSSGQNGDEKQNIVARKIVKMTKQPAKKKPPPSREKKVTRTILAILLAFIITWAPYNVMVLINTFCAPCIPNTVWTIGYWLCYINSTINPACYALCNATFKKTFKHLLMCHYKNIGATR

SMILES: C[C@H]1Cc2c([nH]c3cc(Cl)c(F)cc23)[C@@]2(N1)C(=O)Nc1ccc(Cl)cc12 [CIPARGAMIN]
- CLint scaled [1]: 8.67 mL/min/kg
- half-life [2]: 3.44 h
- IC50 [3]: 0.0109 µM
- Tmax [4]: 1 h
- IC50 [5]: > 10 µM
- IC50 [6]: > 30 µM
- Tmax [7]: 8 h
- IC50 [8]: > 10 µM
- inhibition at 30 µM [9]: 52%
- IC50 [10]: > 30 µM
- IC50 [11]: > 30 µM
- IC50 [12]: > 10 µM
- IC50 [13]: > 30 µM
- IC50 [14]: > 10 µM
- IC50 [15]: > 30 µM
- IC50 [16]: > 10 µM
- CLint scaled [17]: 49.7 mL/min/kg
- IC50 [18]: > 30 µM
- IC50 [19]: 0.0037 µM
- IC50 [20]: > 30 µM
- IC50 [21]: 0.001 µM
- IC50 [22]: > 10 µM
- IC50 [23]: > 10 µM
- IC50 [24]: 0.0032 µM
- IC50 [25]: 0.0007 µM
- mean survival time at 10 mg/kg [26]: 13.3 days
- half-life [27]: 10.7 h
- inhibition (INH) [28]: 50%
- ED50 [29]: 1.2 mg/kg
- ED99 [29]: 5.3 mg/kg
- IC50 [30]: > 30 µM
- IC50 [31]: 8.3 µM
- inhibition [32]: Active
- IC50 [33]: 0.0005 µM
- IC50 [34]: > 10 µM
- IC50 [35]: > 10 µM
- IC50 [36]: > 30 µM
- IC50 [37]: > 30 µM
- IC50 [38]: > 10 µM
- IC50 [39]: > 10 µM
- half-life [40]: 10 h
- IC50 [41]: 0.0028 µM
- IC50 [42]: > 30 µM
